Reference: ChEMBL document CHEMBL4507256 (2021)

Columns and labels:
[1] = biological target: Receptor-type tyrosine-protein kinase FLT3 (Homo sapiens) (UniProt P36888); details: Compound concentration 1000.0 nM
[2] = biological target: Mast/stem cell growth factor receptor Kit (Homo sapiens) (UniProt P10721); details: Compound concentration 1000.0 nM
[3] = system: Mast/stem cell growth factor receptor Kit (Homo sapiens), P10721 [L576P]; details: Compound concentration 1000.0 nM
[4] = biological target: Serine/threonine-protein kinase PAK 2 (Homo sapiens) (UniProt Q13177); details: Compound concentration 1000.0 nM
[5] = biological target: Eukaryotic translation initiation factor 2-alpha kinase 1 (Homo sapiens) (UniProt Q9BQI3); details: Compound concentration 1000.0 nM
[6] = biological target: Mitogen-activated protein kinase kinase kinase kinase 2 (Homo sapiens) (UniProt Q12851); details: Compound concentration 1000.0 nM
[7] = biological target: Peripheral plasma membrane protein CASK (Homo sapiens) (UniProt O14936); details: Compound concentration 1000.0 nM
[8] = biological target: Protein kinase C eta type (Homo sapiens) (UniProt P24723); details: Compound concentration 1000.0 nM
[9] = biological target: Serine/threonine-protein kinase TAO1 (Homo sapiens) (UniProt Q7L7X3); details: Compound concentration 1000.0 nM
[10] = biological target: Serine/threonine-protein kinase Nek6 (Homo sapiens) (UniProt Q9HC98); details: Compound concentration 1000.0 nM
[11] = biological target: Mitogen-activated protein kinase kinase kinase kinase 4 (Homo sapiens) (UniProt O95819); details: Compound concentration 1000.0 nM
[12] = biological target: Activin receptor type-1-like (Homo sapiens) (UniProt P37023); details: Compound concentration 1000.0 nM
[13] = biological target: Serine/threonine-protein kinase DCLK1 (Homo sapiens) (UniProt O15075); details: Compound concentration 1000.0 nM
Chain of Serine/threonine-protein kinase DCLK1 (Homo sapiens) (O15075 whole entry): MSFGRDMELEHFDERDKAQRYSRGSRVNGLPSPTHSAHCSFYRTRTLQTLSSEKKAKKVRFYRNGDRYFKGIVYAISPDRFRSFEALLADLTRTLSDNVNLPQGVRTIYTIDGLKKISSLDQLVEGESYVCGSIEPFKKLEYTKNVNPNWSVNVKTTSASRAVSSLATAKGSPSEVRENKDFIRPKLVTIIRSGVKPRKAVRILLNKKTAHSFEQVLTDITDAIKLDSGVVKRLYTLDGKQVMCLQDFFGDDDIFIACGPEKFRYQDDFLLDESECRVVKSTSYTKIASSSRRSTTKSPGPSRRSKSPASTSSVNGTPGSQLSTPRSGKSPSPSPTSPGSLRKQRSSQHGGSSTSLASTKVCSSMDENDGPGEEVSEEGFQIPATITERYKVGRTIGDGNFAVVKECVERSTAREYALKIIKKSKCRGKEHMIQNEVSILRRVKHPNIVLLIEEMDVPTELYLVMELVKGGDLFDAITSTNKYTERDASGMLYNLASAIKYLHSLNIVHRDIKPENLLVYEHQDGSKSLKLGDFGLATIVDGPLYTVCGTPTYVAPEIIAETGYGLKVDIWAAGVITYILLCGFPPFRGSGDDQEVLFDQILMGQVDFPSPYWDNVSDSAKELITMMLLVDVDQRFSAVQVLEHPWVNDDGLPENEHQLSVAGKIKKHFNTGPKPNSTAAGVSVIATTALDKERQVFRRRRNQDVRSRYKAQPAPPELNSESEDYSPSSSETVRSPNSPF

[14] = biological target: 5-hydroxytryptamine receptor 5A (Homo sapiens) (UniProt P47898); details: Compound concentration 10.0 uM
[15] = system: Epidermal growth factor receptor (Homo sapiens), P00533 [L858R,T790M]; details: Compound concentration 1000.0 nM
[16] = biological target: cAMP-dependent protein kinase catalytic subunit alpha (Homo sapiens) (UniProt P17612); details: Compound concentration 1000.0 nM
[17] = biological target: Cyclin-dependent kinase-like 3 (Homo sapiens) (UniProt Q8IVW4); details: Compound concentration 1000.0 nM
[18] = biological target: Dual specificity tyrosine-phosphorylation-regulated kinase 1B (Homo sapiens) (UniProt Q9Y463); details: Compound concentration 1000.0 nM
Chain of Dual specificity tyrosine-phosphorylation-regulated kinase 1B (Homo sapiens) (Q9Y463 whole entry, looked up): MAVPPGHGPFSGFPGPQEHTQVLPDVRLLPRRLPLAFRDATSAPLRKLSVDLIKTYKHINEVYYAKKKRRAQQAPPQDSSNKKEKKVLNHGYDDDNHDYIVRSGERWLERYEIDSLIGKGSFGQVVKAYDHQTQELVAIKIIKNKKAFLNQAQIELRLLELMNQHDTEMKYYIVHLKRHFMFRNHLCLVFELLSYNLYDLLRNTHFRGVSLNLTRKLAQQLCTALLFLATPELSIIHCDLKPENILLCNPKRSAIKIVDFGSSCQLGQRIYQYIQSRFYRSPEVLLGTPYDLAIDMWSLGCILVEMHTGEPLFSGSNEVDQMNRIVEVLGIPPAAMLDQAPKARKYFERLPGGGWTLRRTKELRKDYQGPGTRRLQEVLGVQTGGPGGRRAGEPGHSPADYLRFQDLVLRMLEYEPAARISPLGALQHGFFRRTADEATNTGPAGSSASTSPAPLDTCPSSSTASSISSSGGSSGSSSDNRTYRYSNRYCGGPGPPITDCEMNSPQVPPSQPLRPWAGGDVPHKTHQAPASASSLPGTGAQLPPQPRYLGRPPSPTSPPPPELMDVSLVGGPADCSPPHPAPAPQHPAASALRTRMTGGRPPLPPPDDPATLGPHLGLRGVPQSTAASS

[19] = system: Tyrosine-protein kinase ABL1 (Homo sapiens), P00519 [H396P]; details: Compound concentration 1000.0 nM
[20] = biological target: Serine/threonine-protein kinase ULK1 (Homo sapiens) (UniProt O75385); details: Compound concentration 1000.0 nM
Chain of Serine/threonine-protein kinase ULK1 (Homo sapiens) (O75385 whole entry): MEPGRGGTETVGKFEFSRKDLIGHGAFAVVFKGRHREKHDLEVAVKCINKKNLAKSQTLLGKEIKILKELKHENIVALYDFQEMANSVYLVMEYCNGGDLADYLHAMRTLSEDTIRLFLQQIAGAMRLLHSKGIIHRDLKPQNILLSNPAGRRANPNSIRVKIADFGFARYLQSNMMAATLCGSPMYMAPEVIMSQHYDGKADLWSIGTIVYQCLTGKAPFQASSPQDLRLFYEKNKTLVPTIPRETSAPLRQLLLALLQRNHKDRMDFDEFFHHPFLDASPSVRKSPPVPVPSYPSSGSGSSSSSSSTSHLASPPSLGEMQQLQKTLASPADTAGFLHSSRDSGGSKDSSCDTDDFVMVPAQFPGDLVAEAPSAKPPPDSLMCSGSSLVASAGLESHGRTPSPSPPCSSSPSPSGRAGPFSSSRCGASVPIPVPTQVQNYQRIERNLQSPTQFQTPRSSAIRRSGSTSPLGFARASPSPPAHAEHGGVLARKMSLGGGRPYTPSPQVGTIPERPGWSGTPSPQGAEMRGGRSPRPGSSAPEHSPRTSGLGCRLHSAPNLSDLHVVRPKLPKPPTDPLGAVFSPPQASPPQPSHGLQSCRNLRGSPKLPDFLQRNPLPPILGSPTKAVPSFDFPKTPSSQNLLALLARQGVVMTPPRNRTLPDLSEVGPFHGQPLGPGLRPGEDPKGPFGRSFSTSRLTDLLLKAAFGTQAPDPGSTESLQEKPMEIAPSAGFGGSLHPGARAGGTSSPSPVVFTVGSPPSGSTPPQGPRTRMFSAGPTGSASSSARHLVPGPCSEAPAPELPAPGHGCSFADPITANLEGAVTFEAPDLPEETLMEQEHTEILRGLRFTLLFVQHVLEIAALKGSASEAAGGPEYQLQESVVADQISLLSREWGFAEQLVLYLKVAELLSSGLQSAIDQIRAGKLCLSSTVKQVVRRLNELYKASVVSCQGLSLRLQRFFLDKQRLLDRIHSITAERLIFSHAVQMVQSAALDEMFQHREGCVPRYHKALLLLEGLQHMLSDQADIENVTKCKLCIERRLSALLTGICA

[21] = biological target: Fibroblast growth factor receptor 4 (Homo sapiens) (UniProt P22455); details: Compound concentration 1000.0 nM
[22] = system: Mast/stem cell growth factor receptor Kit (Homo sapiens), P10721 [A829P]; details: Compound concentration 1000.0 nM
[23] = biological target: Cyclin-dependent kinase 5 (Homo sapiens) (UniProt Q00535); details: Compound concentration 1000.0 nM
Chain of Cyclin-dependent kinase 5 (Homo sapiens) (Q00535 whole entry, looked up): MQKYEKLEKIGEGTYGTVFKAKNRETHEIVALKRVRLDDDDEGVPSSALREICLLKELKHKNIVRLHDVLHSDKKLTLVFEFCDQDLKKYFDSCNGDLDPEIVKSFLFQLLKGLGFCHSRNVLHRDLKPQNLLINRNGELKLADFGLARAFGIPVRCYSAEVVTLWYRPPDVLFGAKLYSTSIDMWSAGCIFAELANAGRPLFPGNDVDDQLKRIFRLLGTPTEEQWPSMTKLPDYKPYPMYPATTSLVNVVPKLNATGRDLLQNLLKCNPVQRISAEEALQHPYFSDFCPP

[24] = biological target: Phosphatidylinositol 3-kinase catalytic subunit type 3 (Homo sapiens) (UniProt Q8NEB9); details: Compound concentration 1000.0 nM
Chain of Phosphatidylinositol 3-kinase catalytic subunit type 3 (Homo sapiens) (Q8NEB9 whole entry): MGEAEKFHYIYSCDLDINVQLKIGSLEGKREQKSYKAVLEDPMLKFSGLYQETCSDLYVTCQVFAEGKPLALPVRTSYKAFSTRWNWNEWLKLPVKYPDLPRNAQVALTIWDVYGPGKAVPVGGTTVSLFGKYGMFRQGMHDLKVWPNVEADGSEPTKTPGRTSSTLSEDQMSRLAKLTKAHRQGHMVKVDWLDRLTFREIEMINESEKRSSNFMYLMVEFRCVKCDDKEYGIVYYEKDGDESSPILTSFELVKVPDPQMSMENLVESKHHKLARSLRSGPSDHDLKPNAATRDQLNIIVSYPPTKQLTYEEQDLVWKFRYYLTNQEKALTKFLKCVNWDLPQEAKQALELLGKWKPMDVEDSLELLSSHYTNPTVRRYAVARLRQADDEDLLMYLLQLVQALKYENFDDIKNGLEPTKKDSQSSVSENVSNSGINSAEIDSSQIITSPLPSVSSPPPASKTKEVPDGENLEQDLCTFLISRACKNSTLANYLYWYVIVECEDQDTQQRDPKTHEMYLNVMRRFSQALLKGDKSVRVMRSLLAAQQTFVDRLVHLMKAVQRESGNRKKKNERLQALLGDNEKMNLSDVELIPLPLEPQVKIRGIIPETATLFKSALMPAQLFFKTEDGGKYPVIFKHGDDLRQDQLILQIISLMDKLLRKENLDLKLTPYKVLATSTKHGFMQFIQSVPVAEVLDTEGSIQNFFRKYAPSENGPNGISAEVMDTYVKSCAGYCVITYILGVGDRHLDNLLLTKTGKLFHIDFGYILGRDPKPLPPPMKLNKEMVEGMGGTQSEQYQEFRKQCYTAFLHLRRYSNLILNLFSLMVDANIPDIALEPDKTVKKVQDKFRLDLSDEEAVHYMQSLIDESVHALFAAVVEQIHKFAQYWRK

[25] = biological target: Mitogen-activated protein kinase kinase kinase 2 (Homo sapiens) (UniProt Q9Y2U5); details: Compound concentration 1000.0 nM
Chain of Mitogen-activated protein kinase kinase kinase 2 (Homo sapiens) (Q9Y2U5 whole entry): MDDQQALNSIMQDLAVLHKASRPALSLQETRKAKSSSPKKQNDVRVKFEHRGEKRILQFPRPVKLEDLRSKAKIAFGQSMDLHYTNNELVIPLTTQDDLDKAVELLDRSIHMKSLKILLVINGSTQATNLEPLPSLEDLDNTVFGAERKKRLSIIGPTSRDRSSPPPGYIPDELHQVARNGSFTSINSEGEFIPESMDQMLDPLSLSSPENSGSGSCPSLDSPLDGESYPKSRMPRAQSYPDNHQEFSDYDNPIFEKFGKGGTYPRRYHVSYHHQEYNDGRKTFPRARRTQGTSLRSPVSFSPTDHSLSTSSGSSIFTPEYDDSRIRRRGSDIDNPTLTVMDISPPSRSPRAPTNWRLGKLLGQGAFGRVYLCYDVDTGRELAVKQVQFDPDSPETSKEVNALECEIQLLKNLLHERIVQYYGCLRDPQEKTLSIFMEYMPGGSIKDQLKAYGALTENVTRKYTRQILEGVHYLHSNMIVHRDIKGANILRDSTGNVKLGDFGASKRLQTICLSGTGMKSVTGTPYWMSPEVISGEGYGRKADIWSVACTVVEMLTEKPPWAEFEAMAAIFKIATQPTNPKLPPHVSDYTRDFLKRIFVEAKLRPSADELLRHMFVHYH

[26] = biological target: Tyrosine-protein kinase ABL1 (Homo sapiens) (UniProt P00519); details: Compound concentration 1000.0 nM
[27] = system: Hepatocyte growth factor receptor (Homo sapiens), P08581 [M1250T]; details: Compound concentration 1000.0 nM
[28] = biological target: Activin receptor type-1B (Homo sapiens) (UniProt P36896); details: Compound concentration 1000.0 nM
[29] = biological target: Casein kinase I isoform alpha (Homo sapiens) (UniProt P48729); details: Compound concentration 1000.0 nM
[30] = biological target: RAC-alpha serine/threonine-protein kinase (Homo sapiens) (UniProt P31749); details: Compound concentration 1000.0 nM
[31] = biological target: Myosin light chain kinase family member 4 (Homo sapiens) (UniProt Q86YV6); details: Compound concentration 1000.0 nM
Chain of Myosin light chain kinase family member 4 (Homo sapiens) (Q86YV6 whole entry, canonical isoform): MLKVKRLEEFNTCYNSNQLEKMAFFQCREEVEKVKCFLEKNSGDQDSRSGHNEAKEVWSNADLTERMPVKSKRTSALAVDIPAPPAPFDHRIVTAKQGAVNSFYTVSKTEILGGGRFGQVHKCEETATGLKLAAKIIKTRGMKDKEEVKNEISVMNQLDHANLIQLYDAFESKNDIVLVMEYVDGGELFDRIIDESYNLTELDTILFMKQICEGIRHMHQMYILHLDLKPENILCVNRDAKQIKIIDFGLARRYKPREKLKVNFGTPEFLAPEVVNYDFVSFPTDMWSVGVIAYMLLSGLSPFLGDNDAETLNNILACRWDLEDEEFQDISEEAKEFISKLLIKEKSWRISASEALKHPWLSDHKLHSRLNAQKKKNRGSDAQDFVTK

[32] = system: Phosphatidylinositol 4,5-bisphosphate 3-kinase catalytic subunit alpha isoform (Homo sapiens), P42336 [E545A]; details: Compound concentration 1000.0 nM
[33] = biological target: RAC-gamma serine/threonine-protein kinase (Homo sapiens) (UniProt Q9Y243); details: Compound concentration 1000.0 nM
[34] = biological target: Interleukin-1 receptor-associated kinase 4 (Homo sapiens) (UniProt Q9NWZ3); details: Compound concentration 1000.0 nM
[35] = biological target: D(1A) dopamine receptor (Homo sapiens) (UniProt P21728); details: Compound concentration 10.0 uM
Chain of D(1A) dopamine receptor (Homo sapiens) (P21728 whole entry): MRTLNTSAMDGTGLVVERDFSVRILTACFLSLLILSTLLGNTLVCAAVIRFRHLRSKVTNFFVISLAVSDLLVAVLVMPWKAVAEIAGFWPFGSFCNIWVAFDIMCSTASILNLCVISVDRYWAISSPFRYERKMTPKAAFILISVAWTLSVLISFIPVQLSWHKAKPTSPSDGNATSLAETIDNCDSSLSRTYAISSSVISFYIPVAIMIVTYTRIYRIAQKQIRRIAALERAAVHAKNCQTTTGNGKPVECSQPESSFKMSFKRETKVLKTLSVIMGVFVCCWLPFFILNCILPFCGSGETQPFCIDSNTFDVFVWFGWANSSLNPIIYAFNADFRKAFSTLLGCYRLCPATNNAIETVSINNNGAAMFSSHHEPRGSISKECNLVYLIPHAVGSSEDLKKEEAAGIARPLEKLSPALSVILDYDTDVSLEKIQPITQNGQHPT

[36] = biological target: Serine/threonine-protein kinase Nek9 (Homo sapiens) (UniProt Q8TD19); details: Compound concentration 1000.0 nM
[37] = biological target: Calcium/calmodulin-dependent protein kinase type 1B (Homo sapiens) (UniProt Q6P2M8); details: Compound concentration 1000.0 nM
[38] = system: Proto-oncogene tyrosine-protein kinase receptor Ret (Homo sapiens), P07949 [V804M]; details: Compound concentration 1000.0 nM
[39] = biological target: Tyrosine-protein kinase receptor TYRO3 (Homo sapiens) (UniProt Q06418); details: Compound concentration 1000.0 nM
[40] = biological target: STE20-like serine/threonine-protein kinase (Homo sapiens) (UniProt Q9H2G2); details: Compound concentration 1000.0 nM
[41] = biological target: Maternal embryonic leucine zipper kinase (Homo sapiens) (UniProt Q14680); details: Compound concentration 1000.0 nM
[42] = biological target: Phosphatidylinositol 5-phosphate 4-kinase type-2 beta (Homo sapiens) (UniProt P78356); details: Compound concentration 1000.0 nM
[43] = biological target: Tyrosine-protein kinase receptor Tie-1 (Homo sapiens) (UniProt P35590); details: Compound concentration 1000.0 nM
[44] = biological target: Ephrin type-B receptor 4 (Homo sapiens) (UniProt P54760); details: Compound concentration 1000.0 nM
[45] = biological target: Ephrin type-B receptor 1 (Homo sapiens) (UniProt P54762); details: Compound concentration 1000.0 nM

CCC(=N\O)/C(C)=C/c1ccc(F)cc1 [A-079]
inactive: residual activity [1] 86% | residual activity [2] 80% | residual activity [3] 100% | residual activity [4] 82% | residual activity [5] 100% | residual activity [6] 97% | residual activity [7] 70% | residual activity [8] 100% | residual activity [9] 100% | residual activity [10] 87% | residual activity [11] 97% | residual activity [12] 76% | residual activity [13] 93% | inhibition [14] 3.01% | residual activity [15] 100% | residual activity [16] 78% | residual activity [17] 80% | residual activity [18] 57% | residual activity [19] 100% | residual activity [20] 85% | residual activity [21] 96% | residual activity [22] 64% | residual activity [23] 68% | residual activity [24] 83% | residual activity [25] 85% | residual activity [26] 83% | residual activity [27] 76% | residual activity [28] 77% | residual activity [29] 74% | residual activity [30] 82% | residual activity [31] 94% | residual activity [32] 76% | residual activity [33] 83% | residual activity [34] 100% | inhibition [35] 13.4% | residual activity [36] 79% | residual activity [37] 82% | residual activity [38] 100% | residual activity [39] 100% | residual activity [40] 91% | residual activity [41] 96% | residual activity [42] 91% | residual activity [43] 63% | residual activity [44] 73% | residual activity [45] 100%

CCC(=N\O)/C(C)=C/c1ccc(F)c(C)c1 [A-226]
inactive: residual activity [1] 100% | residual activity [2] 100% | residual activity [3] 94% | residual activity [4] 79% | residual activity [5] 100% | residual activity [6] 100% | residual activity [7] 100% | residual activity [8] 68% | residual activity [9] 100% | residual activity [10] 99% | residual activity [11] 100% | residual activity [12] 98% | residual activity [13] 100% | inhibition [14] -3.24% | residual activity [15] 100% | residual activity [16] 100% | residual activity [17] 86% | residual activity [18] 100% | residual activity [19] 100% | residual activity [20] 96% | residual activity [21] 83% | residual activity [22] 100% | residual activity [23] 86% | residual activity [24] 100% | residual activity [25] 100% | residual activity [26] 100% | residual activity [27] 88% | residual activity [28] 82% | residual activity [29] 100% | residual activity [30] 98% | residual activity [31] 99% | residual activity [32] 100% | residual activity [33] 89% | residual activity [34] 95% | inhibition [35] -0.91% | residual activity [36] 100% | residual activity [37] 100% | residual activity [38] 100% | residual activity [39] 100% | residual activity [40] 93% | residual activity [41] 100% | residual activity [42] 74% | residual activity [43] 100% | residual activity [44] 100% | residual activity [45] 90%
